Assay results published in patent US20070270462A1, “8-hydroxyquinoline compounds for treating a polyglutamine (polyQ)-expansion disease” (priority 2005, published 2007).
Marks after values point to notes of the source that are not given here.

What was measured:
[1] = test system: R6/2 mice; assay: Lateral ventricle area (striatal atrophy) in R6/2 mice; assay type: in vivo, mouse; settings: 11-week old, oral CQ 30 mg/kg/day, versus sham treatment group
Description: (§1) A colony of transgenic mice strain R6/2 that is heterozygous for htt exon1 (containing 145 CAG repeats) was maintained, with founders originating and available from The Jackson Laboratory (Bar Harbor, Me., USA). Male transgenic R6/2 mice were bred with background strain (B6CBAFI/J) females. Genotyping was done according to Hockly et al, Brain Res Bull 61, 469-479, 2003. CQ in water was orally administered to mice at 30 mg/kg/day starting at 3 weeks of age and continued until the mice were deceased or sacrificed for tissues. Littermate R6/2 mice were gavaged with water vehicle alone. At the end of CQ treatment mice were anesthetized and transcardially perfused with PBS followed by 4% v/v paraformaldehyde. Blood glucose levels were determined after at least 8 hrs of fasting in 11-week old mice (n=6 for wild-type, n=4 for vehicle-treated R6/2, n=6 for CQ-treated R6/2 littermates) using a 2300 STAT Plus glucose analyzer (YSI, Yellowsonte, Ohio, USA). Fasting blood insulin levels in animals fasted for 8 hrs were measured using an Ultra Sensitive Rat Insulin ELISA Kit (Crystal Chem, Inc., Downers Grove, Ill., USA) according to manufacturer's instructions.
Plasma membrane integrity was evaluated using propidium iodide at 20 μg/ml final concentration. Approximately 200 cells transfected with the Htt^exon1-Q103-egf plasmid were counted for each treatment group 48 hr after transfection. […]

[2] = test system: R6/2 mice; assay: Fasting blood insulin in R6/2 mice (ELISA); assay type: in vivo, mouse; settings: 11-week old R6/2 mice
Description: as §1
(§2) Consistent with the blood glucose level was a reciprocal change in blood insulin levels.
(§3) Data are mean+s.e.m. n≧4 for each treatment group. *P<0.0004 for glucose, **P=0.0065 for insulin levels comparing vehicle and CQ-treated groups.

[3] = test system: R6/2 mice; assay: Fasting blood glucose in R6/2 mice; assay type: in vivo, mouse; settings: 11-week old R6/2 mice after 8 weeks of CQ treatment, mean ± s.e.m.
Description: as §1, §2, §3

[4] = test system: Htt exon1-Q25-egfp; assay: Fluorescence microscopy of transfected PC12 cells expressing Htt exon1-Q25-egfp; assay type: cell-based; settings: CQ 4 μM, 48 hours post-transfection
Description: (§4) PolyQ-htt-GFP fusion constructs, in which the polyglutamine region is encoded by CAA and CAG-containing tandem repeats ([…]) [SEQ ID NO: 1], human polyglutaminen, were obtained from the Hereditary Disease Foundation, Santa Monica, Calif., USA. PC12 and HEK293 cells were maintained in MEM supplemented with 10% v/v FBS, switched to Opti-MEM without serum for 6 hrs during transfection using Lipofectamine 2000 (Invitrogen, Carlsbad, Calif., USA), and returned to serum-containing medium thereafter (up to 48 hours). […] Control cultures received equivalent amounts of DMSO-containing vehicle (<0.1% w/v DMSO, final concentration).
(§5) Concordant with this reduction in mutant protein expression, cell survival was improved by CQ in a dose dependent fashion with a half maximal effect at 1-2 μM (FIG. 2b). Cell death began to increase at 8 μM, likely due to dose-dependent toxic effects of CQ.

[5] = test system: R6/2 mice; assay: Body weight of R6/2 mice; assay type: in vivo, mouse; settings: 10th and 11th weeks, oral CQ 30 mg/kg/day
Description: as §1, with “instructions. […]” for “instructions.”

[6] = test system: egfp-alone; assay: Fluorescence microscopy of transfected PC12 cells expressing egfp alone; assay type: cell-based; settings: CQ 4 μM, 48 hours post-transfection
Description: as §4, §5

[7] = test system: Alzheimer's disease; settings: phase II clinical trial; cited from earlier work
[8] = test system: Htt exon1-Q103-egfp; assay: Fluorescence microscopy of transiently transfected PC12 cells expressing Htt exon1-Q103-egfp; assay type: cell-based; settings: CQ 4 μM, 48 hours post-transfection
Description: as §4, §5

[9] = test system: Htt exon1-Q103-egfp mRNA; assay: Northern analysis of Htt exon1-Q103-egfp mRNA; assay type: cell-based; settings: Northern analysis after 48 hrs of transfection
Description: Trizol reagent (Invitrogen, Carlsbad, Calif.) was used to isolate total RNA. Ten μg of total RNA was electrophoresed through 1.25% w/v agarose gel and transferred onto Hybond N+membrane. The membrane was baked in an 80° C. oven for 15 min and UV-crosslinked. Exon 1 of htt containing 103 CAA/CAG-repeats was used as a probe for northern blot detection according to AlkPhos Direct Labeling and Detection System (Amersham Biosciences, Piscataway, N.J.). One hundred ng of the probe was hybridized to the membrane in a 60° C. rotating hybridization oven overnight. The membrane was scanned using the Typhoon 9410 digital scanner (Amersham Biosciences, Piscataway, N.J.) to yield the signal image. The experiment was performed three times and band intensities were averaged.
In examining potential mechanisms for the effects of CQ on Htt accumulation, we considered the possibilities that CQ might act to inhibit Htt aggregation or directly influence Htt synthesis or degradation. […] Therefore, we focused on the aspects of Htt synthesis and turnover. To determine whether CQ might down-regulate polyQ-Htt expression at the transcriptional level, we examined the amount of Htt^exon1-Q103-egfp mRNA present after 48 hrs of transfection by Northern analysis. […]

Oc1c(I)cc(Cl)c2cccnc12 [CQ, 5-chloro-7-iodo-8-hydroxy-quinoline]
reduction of lateral ventricle area [1]: 55%
fasting blood insulin level ([2]; CQ treated group): 415 ± 54.6 pg/mL
Insulin level ([2]; fasting, CQ-treated, mean ± s.e.m. (Table 3)): 415 ± 54.60** pg/ml
fasting blood glucose level [3]: 4.1 ± 0.3 mM
fluorescent product of Htt exon1-Q25-egfp [4]: unaffected
body weight [5]: significantly greater than untreated animals
fluorescent product of egfp-alone [6]: unaffected
CQ toxicity [7]: no significant CQ toxicity
effects on Alzheimer's disease [7]: early positive effects
fluorescent product of Htt exon1-Q103-egfp [8]: less fluorescent product
effect on Htt exon1-Q103-egfp mRNA levels [9]: no significant effect
